Test results as given in patent US11584714B2 (priority 2018, dated 2023).
Structures can show the parent of a compound that is named as a salt. Where two headings read alike, the source gives them in different places.

Assays:
Format in all cases: biochemical
mMASP-2 = mMASP-2 (Mus musculus (Mouse), UniProt Q91WP0); assay: Enzymatic inhibition of mMASP-2; conditions: read-out: mMASP-2 Ki
human α-thrombin = human α-thrombin (Homo sapiens (Human), UniProt P00734); assay: Enzymatic assay for thrombin (Boc-VPR-AMC substrate)
MASP-2 (CCP1-CCP2-SP) = MASP-2 (CCP1-CCP2-SP) (Homo sapiens (Human), UniProt O00187); assay: biochemical
[1] = selectivity for MASP-2 inhibition versus thrombin

Sequence of MASP-2 (CCP1-CCP2-SP) (O00187 445-686): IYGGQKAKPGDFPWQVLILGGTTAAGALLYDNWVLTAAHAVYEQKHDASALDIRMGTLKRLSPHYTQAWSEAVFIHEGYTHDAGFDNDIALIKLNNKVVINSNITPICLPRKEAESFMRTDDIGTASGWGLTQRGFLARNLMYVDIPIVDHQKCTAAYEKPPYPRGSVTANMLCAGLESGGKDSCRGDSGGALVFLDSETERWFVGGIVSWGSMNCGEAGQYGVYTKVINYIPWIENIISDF
Sequence of mMASP-2 (Q91WP0 20-685): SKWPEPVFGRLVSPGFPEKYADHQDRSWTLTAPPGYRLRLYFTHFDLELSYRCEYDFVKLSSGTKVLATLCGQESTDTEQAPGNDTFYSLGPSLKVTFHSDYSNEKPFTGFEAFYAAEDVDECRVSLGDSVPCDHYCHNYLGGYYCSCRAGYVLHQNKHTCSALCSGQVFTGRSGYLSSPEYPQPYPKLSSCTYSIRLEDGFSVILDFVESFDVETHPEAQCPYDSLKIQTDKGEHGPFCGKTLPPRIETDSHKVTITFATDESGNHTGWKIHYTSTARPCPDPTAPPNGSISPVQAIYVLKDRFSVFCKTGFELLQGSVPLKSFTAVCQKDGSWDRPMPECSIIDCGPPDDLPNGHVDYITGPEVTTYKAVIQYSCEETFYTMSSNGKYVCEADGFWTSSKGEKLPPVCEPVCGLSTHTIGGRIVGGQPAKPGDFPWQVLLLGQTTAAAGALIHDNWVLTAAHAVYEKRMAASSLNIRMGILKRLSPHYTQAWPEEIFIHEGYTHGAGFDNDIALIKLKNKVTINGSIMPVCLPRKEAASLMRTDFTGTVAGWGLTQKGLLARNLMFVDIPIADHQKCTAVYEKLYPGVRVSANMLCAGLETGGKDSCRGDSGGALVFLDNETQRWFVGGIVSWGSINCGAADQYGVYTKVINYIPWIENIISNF

Compound | Ki (mMASP-2) | Ki (human α-thrombin; Thrombin Ki (μM)) | Ki (MASP-2 (CCP1-CCP2-SP); read-out: MASP-2 Ki) | MASP-2 vs. thrombin selectivity (MASP-2 (CCP1-CCP2-SP); [1]) | Ki (human α-thrombin; read-out: Thrombin Ki) | Ki (MASP-2 (CCP1-CCP2-SP)) | MASP-2 vs. thrombin selectivity (MASP-2 (CCP1-CCP2-SP); MASP-2 inhibition versus thrombin)
Cc1nc(N)ccc1CNC(=O)[C@H](C)NC(=O)[C@H]1C[C@H](Cc2cc(Br)no2)CN1 [compound 1421, (2R,4R)—N—((S)-1-(((6-Amino-2-methylpyridin-3-yl)methyl)amino)-1-oxopropan-2-yl)-4-((3-bromoisoxazol-5-yl)methyl)pyrrolidine-2-carboxamide Di-trifluoroacetate salt] | 500 to 2500 nM | 10 to 25 µM | < 500 nM | **** (≥100-fold) |  |  | 
Cc1nc(N)ccc1CNC(=O)[C@H](C)NC(=O)c1cc(Cc2ccccc2)n[nH]1 [compound 1367, (S)—N-(1-(((6-Amino-2-methylpyridin-3-yl)methyl)amino)-1-oxopropan-2-yl)-3-benzyl-1H-pyrazole-5-carboxamide] | 10000 to 25000 nM |  | < 500 nM |  | > 25 µM |  | 
C[C@H](NC(=O)[C@H]1C[C@H](c2ccccc2)CN1)C(=O)NCc1cnc2[nH]cc(Cl)c2c1 [compound 1329, (2R,4R)—N—((S)-1-(((3-chloro-1H-pyrrolo[2,3-b]pyridin-5-yl)methyl)amino)-1-oxopropan-2-yl)-4-phenylpyrrolidine-2-carboxamide Dihydrochloride] | < 500 nM | 0.5 to 2.5 µM | < 500 nM | * (≥1.0 to <5.0-fold) |  |  | 
Cc1nc(N)ccc1CNC(=O)[C@H](C)NC(=O)[C@H]1C[C@H](Cc2ccc(-c3cccnc3)cc2)CN1 [compound 1357, (2R,4S)—N—((S)-1-(((6-Amino-2-methylpyridin-3-yl)methyl)amino)-1-oxopropan-2-yl)-4-(4-(pyridin-3-yl)benzyl)pyrrolidine-2-carboxamide Di-trifluoroacetate salt] | < 500 nM |  | < 500 nM | **** (≥100-fold) | > 25 µM |  | 
C[C@H](NC(=O)[C@H](N)CCc1ccccc1)C(=O)NCc1ccc(C(=N)N)nc1 [compound 1270, (R)-2-Amino-N—((S)-1-(((6-carbamimidoylpyridin-3-yl)methyl)amino)-1-oxopropan-2-yl)-4-phenylbutanamide] | < 500 nM |  | < 500 nM | ** (≥5.0 to <25-fold) | < 0.5 µM |  | 
C[C@H](NC(=O)[C@H]1C[C@H](c2ccccc2)CN1)C(=O)NCC1CCc2nc(N)sc2C1 (stereo partly drawn) [compound 1281, (2R,4R)—N-((2S)-1-(((2-Amino-4,5,6,7-tetrahydrobenzo[d]thiazol-6-yl)methyl)amino)-1-oxopropan-2-yl)-4-phenylpyrrolidine-2-carboxamide] | > 25000 nM |  |  |  | > 25 µM | 2500 to 10000 nM | 
Cc1cccc(CC[C@@H](N)C(=O)N[C@@H](C)C(=O)NCc2ccc(C(=N)N)cc2)c1 [compound 1046] | < 500 nM |  | < 500 nM |  | < 0.5 µM |  | ** (5.0 to 25-fold)
C[C@H](NC(=O)[C@@H]1C[C@@H](Cc2ccccc2)CN1)C(=O)NCc1ccc(C(=N)N)cc1 [compound 1285, (2S,4R)-4-Benzyl-N-((S)-1-((4-carbamimidoylbenzyl)amino)-1-oxopropan-2-yl)pyrrolidine-2-carboxamide] | 500 to 2500 nM | 2.5 to 10 µM |  | ** (≥5.0 to <25-fold) |  | 500 to 2500 nM | 
Cc1cc(Br)cc(CNC(=O)[C@H](C)NC(=O)[C@H]2C[C@H](Cc3ccccc3)CN2)c1-n1cnnn1 [compound 1436, (2R,4S)-4-Benzyl-N-((S)-1-((5-bromo-3-methyl-2-(1H-tetrazol-1-yl)benzyl)amino)-1-oxopropan-2-yl)pyrrolidine-2-carboxamide Trifluoroacetate] | > 25000 nM | 10 to 25 µM |  | ** (≥5.0 to <25-fold) |  | 500 to 2500 nM | 
Cc1cc(C[C@@H]2CN[C@@H](C(=O)N[C@@H](C)C(=O)NCc3cnc4c(c3)c(Cl)cn4C)C2)ccn1 [compound 1468, Trifluoroacetate] | < 500 nM |  | < 500 nM | **** (≥100-fold) | > 25 µM |  | 
CC(=O)Nc1ccc(CCN[C@H](CCc2ccccc2)C(=O)N[C@@H](C)C(=O)NCc2ccc(N)nc2C)cc1 [compound 1368, (R)-2-((4-Acetamidophenethyl)amino)-N-((S)-1-(((6-amino-2-methylpyridin-3-yl)methyl)amino)-1-oxopropan-2-yl)-4-phenylbutanamide Dihydrochloride] | 10000 to 25000 nM |  |  | ** (≥5.0 to <25-fold) | > 25 µM | 500 to 2500 nM | 
Cc1nc(N)ccc1CNC(=O)[C@H](C)NC(=O)[C@H]1C[C@H](Cc2ccccc2-c2ccc(Cl)s2)CN1 [compound 1410, (2R,4S)—N—((S)-1-(((6-Amino-2-methylpyridin-3-yl)methyl)amino)-1-oxopropan-2-yl)-4-(2-(5-chlorothiophen-2-yl)benzyl)pyrrolidine-2-carboxamide Trifluoroacetate] | 500 to 2500 nM | 0.5 to 2.5 µM | < 500 nM | *** (≥25 to <100-fold) |  |  | 
C[C@H](NC(=O)[C@H]1C[C@H](c2ccccc2)CN1)C(=O)NCc1cnc2[nH]ccc2c1 [compound 1311, (2R,4R)—N—((S)-1-(((1H-Pyrrolo[2,3-b]pyridin-5-yl)methyl)amino)-1-oxopropan-2-yl)-4-phenylpyrrolidine-2-carboxamide Dihydrochloride] | 2500 to 10000 nM |  |  | * (≥1.0 to <5.0-fold) | > 25 µM | 2500 to 10000 nM | 
C[C@H](NC(=O)[C@@H](CCc1ccccc1)NCc1ccc(OCCO)cc1)C(=O)NCc1ccc(C(=N)N)cc1 [compound 1236, (R)—N—((S)-1-((4-Carbamimidoylbenzyl)amino)-1-oxopropan-2-yl)-2-((4-(2-hydroxyethoxy)benzyl)amino)-4-phenylbutanamide] | < 500 nM |  | < 500 nM | * (≥1.0 to <5.0-fold) | < 0.5 µM |  | 
Cc1nc(N)ccc1CNC(=O)[C@H](C)NC(=O)[C@H]1C[C@H](Cc2cccc(-c3ccccc3)c2)CN1 [compound 1406, (2R,4S)-4-([1,1′-Biphenyl]-3-ylmethyl)-N-((S)-1-(((6-amino-2-methylpyridin-3-yl)methyl)amino)-1-oxopropan-2-yl)pyrrolidine-2-carboxamide Dihydrochloric acid] | < 500 nM | 2.5 to 10 µM | < 500 nM | **** (≥100-fold) |  |  | 
CC(C)c1cccc([C@H]2CN[C@@H](C(=O)N[C@@H](C)C(=O)NCc3ccc(C(=N)N)cc3)C2)c1 [compound 1316, (2R,4S)—N—((S)-1-((4-Carbamimidoylbenzyl)amino)-1-oxopropan-2-yl)-4-(3-isopropylphenyl)pyrrolidine-2-carboxamide Dihydrochloride] | < 500 nM | 0.5 to 2.5 µM | < 500 nM | *** (≥25 to <100-fold) |  |  | 
C[C@H](NC(=O)[C@H]1C[C@@H](c2cccc(C(F)(F)F)c2)CN1)C(=O)NCc1ccc(C(=N)N)cc1 [compound 1276, (2R,4S)—N—((S)-1-((4-Carbamimidoylbenzyl)amino)-1-oxopropan-2-yl)-4-(3-(trifluoromethyl)phenyl)pyrrolidine-2-carboxamide] | < 500 nM | 0.5 to 2.5 µM | < 500 nM | *** (≥25 to <100-fold) |  |  | 
C[C@H](NC(=O)[C@H](N)CCc1ccccc1)C(=O)NCc1cc(Br)ccc1O [compound 1279, (R)-2-amino-N—((S)-1-((5-bromo-2-hydroxybenzyl)amino)-1-oxopropan-2-yl)-4-phenylbutanamide] | > 25000 nM | 2.5 to 10 µM |  | ** (≥5.0 to <25-fold) |  | 500 to 2500 nM | 
C[C@H](NC(=O)[C@H]1C[C@@H](c2ccccc2)CCN1)C(=O)NCc1ccccc1 [compound 1271, (2R,4S)—N—((S)-1-(benzylamino)-1-oxopropan-2-yl)-4-phenylpiperidine-2-carboxamide] | > 25000 nM |  |  |  | > 25 µM | 2500 to 10000 nM | 
C[C@H](NC(=O)[C@H]1C[C@@H](Cc2ccccc2)CN1)C(=O)NCc1ccc(C(=N)N)cc1 [compound 1284, (2R,4R)-4-Benzyl-N-((S)-1-((4-carbamimidoylbenzyl)amino)-1-oxopropan-2-yl)pyrrolidine-2-carboxamide] | < 500 nM |  | < 500 nM | * (≥1.0 to <5.0-fold) | < 0.5 µM |  | 
Cc1nc(N)ccc1CNC(=O)[C@H](C)NC(=O)[C@H]1C[C@H](c2ccccc2)CN1 [compound 1265, (2R,4R)—N—((S)-1-(((6-Amino-2-methylpyridin-3-yl)methyl)amino)-1-oxopropan-2-yl)-4-phenylpyrrolidine-2-carboxamide] | 2500 to 10000 nM |  | < 500 nM | **** (≥100-fold) | > 25 µM |  | 
CCN1C[C@@H](Cc2ccc(Cl)c(Br)c2)C[C@@H]1C(=O)N[C@@H](C)C(=O)NCc1ccc(N)nc1C [compound 1464, (2R,4S)—N—((S)-1-(((6-Amino-2-methylpyridin-3-yl)methyl)amino)-1-oxopropan-2-yl)-4-(3-bromo-4-chlorobenzyl)-1-ethylpyrrolidine-2-carboxamide] | < 500 nM |  | < 500 nM |  | > 25 µM |  | 
C[C@H](NC(=O)[C@H](N)CCc1ccccc1)C(=O)NCc1ccnc(N)c1 [compound 1296, (R)-2-Amino-N—((S)-1-(((2-aminopyridin-4-yl)methyl)amino)-1-oxopropan-2-yl)-4-phenylbutanamide Dihydrochloride] | > 25000 nM |  |  | ** (≥5.0 to <25-fold) | > 25 µM | 2500 to 10000 nM | 
C[C@H](NC(=O)[C@H]1C[C@H](Cc2ccccc2)CN1)C(=O)NCc1cc(Cl)cc(Cl)c1O [compound 1448, (2R,4S)-4-benzyl-N-((S)-1-((3,5-dichloro-2-hydroxybenzyl)amino)-1-oxopropan-2-yl)pyrrolidine-2-carboxamide, hydrochloride] | 2500 to 10000 nM |  | < 500 nM | **** (≥100-fold) | > 25 µM |  | 
